Measured values reported in patent publication US12173018B2, “Penicillin-binding protein inhibitors” (priority 2018, dated 2024).
Where two headings read alike, the source gives them in different places.

Assays:
P. aeruginosa PAO1 = assay: Broth microdilution MIC, P. aeruginosa PAO1; assay type: cell-based; settings: Pseudomonas aeruginosa
Outline: (§1)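 Following CLSI guidance, growth inhibition is measured in Mueller-Hinton broth with divalent cations. Inoculum 5×10^5 CFU/mL; incubation 16-20 hours, 37° C; endpoint is visual absence of growth.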

P. aeruginosa ATCC 35151 = assay: microbe, parasite or virus in culture; assay type: cell-based; settings: Pseudomonas aeruginosa, ATCC35151; hyper-permeable P. aeruginosa ATCC 35151; read-out: MIC P. aeruginosa ATCC 35151
Outline: as §1

[1] = system: P. aeruginosa (ΔmexAB-oprM); assay: microbe, parasite or virus in culture; assay type: cell-based; settings: Pseudomonas aeruginosa, read-out: MIC P. aeruginosa ΔmexAB-OprM
Outline: as §1

E. coli PBP3 = E. coli PBP3 (Escherichia coli (strain K12), UniProt P0AD68); assay: E. coli PBP3 Bocillin-FL fluorescence polarization competition binding assay
Chain of E. coli PBP3 (P0AD68 whole entry): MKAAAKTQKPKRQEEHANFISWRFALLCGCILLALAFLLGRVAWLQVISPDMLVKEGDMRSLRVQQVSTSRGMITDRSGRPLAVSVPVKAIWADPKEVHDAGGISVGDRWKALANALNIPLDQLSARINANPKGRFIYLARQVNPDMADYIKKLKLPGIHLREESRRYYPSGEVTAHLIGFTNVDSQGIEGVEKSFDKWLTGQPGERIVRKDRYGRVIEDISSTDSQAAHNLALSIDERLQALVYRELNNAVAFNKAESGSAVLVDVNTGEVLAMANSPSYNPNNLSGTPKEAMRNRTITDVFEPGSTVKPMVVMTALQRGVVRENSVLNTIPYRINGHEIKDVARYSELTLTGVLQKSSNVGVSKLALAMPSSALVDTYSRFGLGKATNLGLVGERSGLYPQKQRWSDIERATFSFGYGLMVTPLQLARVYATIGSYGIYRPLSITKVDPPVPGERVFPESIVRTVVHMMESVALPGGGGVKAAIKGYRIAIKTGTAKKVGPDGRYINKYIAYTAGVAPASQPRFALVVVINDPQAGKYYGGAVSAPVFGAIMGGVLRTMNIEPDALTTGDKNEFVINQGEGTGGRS
Outline: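 Polarization at 490/520 nm was monitored for 60 minutes in pH 8.0 Hepes buffer containing 300 mM NaCl and 5% glycerol, with compound spanning 0–1000 μM.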

A. baumannii ATCC 19606 = assay: Broth microdilution MIC, A. baumannii ATCC 19606; assay type: cell-based; settings: Acinetobacter baumannii
Outline: as §1

[2] = P. aeruginosa PAO1, broth microdilution, read-out: MIC P. aeruginosa PAO1
[3] = fluorescence polarization competition binding with Bocillin-FL, read-out: E. coli K12 PBP3 Potency
[4] = ATCC19606, A. baumannii ATCC 19606, broth microdilution, read-out: MIC A. baumannii ATCC 19606
[5] = PAO1, read-out: MIC P. aeruginosa PAO1
[6] = ATCC19606, read-out: MIC A. baumannii ATCC 19606

| Compound | MIC (P. aeruginosa PAO1; [2]) [µg/mL] | MIC (P. aeruginosa ATCC 35151) [µg/mL] | MIC [1] [µg/mL] | EC50 (E. coli PBP3; [3]) [µM] | MIC (A. baumannii ATCC 19606; [4]) [µg/mL] | EC50 (E. coli PBP3) [µM] | MIC (P. aeruginosa PAO1; [5]) [µg/mL] | MIC (A. baumannii ATCC 19606; [6]) [µg/mL] |
| --- | --- | --- | --- | --- | --- | --- | --- | --- |
| NS(=O)(=O)c1ccc(C(NC(=O)N2CCN(CCF)C(=O)C2=O)C(=O)N[C@H]2Cc3cccc(C(=O)O)c3OB2O)c(F)c1 (stereo partly drawn) [Example 204, (3R)-3-(2-(2-fluoro-4-sulfamoylphenyl)-2-(4-(2-fluoroethyl)-2,3-dioxopiperazine-1-carboxamido)acetamido)-2-hydroxy-3,4-dihydro-2H-benzo[e][1,2]oxaborinine-8-carboxylic acid] | > 128 | 0.5 to 1 | 8 to 16 | < 30 | > 128 | – | – | – |
| NCCN1CCN(C(=O)N[C@@H](C(=O)N[C@H]2Cc3ccc(F)c(C(=O)O)c3OB2O)c2ncc(O)cc2F)C(=O)C1=O [Example 230, (R)-3-((R)-2-(4-(2-aminoethyl)-2,3-dioxopiperazine-1-carboxamido)-2-(3-fluoro-5-hydroxypyridin-2-yl)acetamido)-7-fluoro-2-hydroxy-3,4-dihydro-2H-benzo[e][1,2]oxaborinine-8-carboxylic acid] | 32 to 64 | < 0.25 | 2 to 4 | < 30 | > 128 | – | – | – |
| NCCN1CCN(C(=O)N[C@@H](C(=O)N[C@H]2Cc3cccc(C(=O)O)c3OB2O)c2ncc(O)cc2F)C(=O)C1=O [Example 225, (R)-3-((R)-2-(4-(2-aminoethyl)-2,3-dioxopiperazine-1-carboxamido)-2-(3-fluoro-5-hydroxypyridin-2-yl)acetamido)-2-hydroxy-3,4-dihydro-2H-benzo[e][1,2]oxaborinine-8-carboxylic acid] | > 128 | 0.5 to 1 | 2 to 4 | < 30 | > 128 | – | – | – |
| CCN1C[C@H](C)N(C(=O)NC(C(=O)N[C@H]2Cc3ccc(F)c(C(=O)O)c3OB2O)c2ncc(O)cc2F)C(=O)C1=O (stereo partly drawn) [Example 208, (3R)-3-(2-((S)-4-ethyl-6-methyl-2,3-dioxopiperazine-1-carboxamido)-2-(3-fluoro-5-hydroxypyridin-2-yl)acetamido)-7-fluoro-2-hydroxy-3,4-dihydro-2H-benzo[e][1,2]oxaborinine-8-carboxylic acid] | > 128 | < 0.25 | 32 to 64 | < 30 | > 128 | – | – | – |
| CCN1CCN(C(=O)NC(C(=O)N[C@H]2Cc3cccc(C(=O)O)c3OB2O)c2ncc(O)cc2Cl)C(=O)C1=O (stereo partly drawn) [Example 150, (3R)-3-(2-(4-ethyl-2,3-dioxopiperazine-1-carboxamido)-2-(3-chloro-5-hydroxypyridin-2-yl)acetamido)-2-hydroxy-3,4-dihydro-2H-benzo[e][1,2]oxaborinine-8-carboxylic acid] | > 128 | 2 to 4 | 32 to 64 | < 30 | > 128 | – | – | – |
| O=C(O)c1cccc2c1OB(O)[C@@H](NC(=O)C(NC(=O)N1CCN(CCF)C(=O)C1=O)c1ccc(S(=O)(=O)NCCO)cc1)C2 (stereo partly drawn) [Example 213, (3R)-3-(2-(4-(2-fluoroethyl)-2,3-dioxopiperazine-1-carboxamido)-2-(4-(N-(2-hydroxyethyl)sulfamoyl)phenyl)acetamido)-2-hydroxy-3,4-dihydro-2H-benzo[e][1,2]oxaborinine-8-carboxylic acid] | > 128 | 2 to 4 | 8 to 16 | – | > 128 | 30 to 500 | – | – |
| CCN1CCN(C(=O)NC(C(=O)N[C@H]2Cc3ccc(F)c(C(=O)O)c3OB2O)c2ncc(O)cc2Cl)C(=O)C1=O (stereo partly drawn) [Example 151, (3R)-3-(2-(3-chloro-5-hydroxypyridin-2-yl)-2-(4-ethyl-2,3-dioxopiperazine-1-carboxamido)acetamido)-7-fluoro-2-hydroxy-3,4-dihydro-2H-benzo[e][1,2]oxaborinine-8-carboxylic acid] | > 128 | < 0.25 | 8 to 16 | < 30 | > 128 | – | – | – |
| CCN1CCN(C(=O)NC(C(=O)N[C@H]2Cc3ccc(Cl)c(C(=O)O)c3OB2O)c2ccc(O)c(O)c2Cl)C(=O)C1=O (stereo partly drawn) [Example 217, (3R)-7-chloro-3-(2-(2-chloro-3,4-dihydroxyphenyl)-2-(4-ethyl-2,3-dioxopiperazine-1-carboxamido)acetamido)-2-hydroxy-3,4-dihydro-2H-benzo[e][1,2]oxaborinine-8-carboxylic acid] | 2 to 4 | < 0.25 | < 0.25 | – | 0.5 to 1 | 30 to 500 | – | – |
| CCN1CCN(C(=O)NC(C(=O)N[C@H]2Cc3cccc(C(=O)O)c3OB2O)c2ccc(C(=O)O)cc2)C(=O)C1=O (stereo partly drawn) [Example 212, (3R)-3-(2-(4-carboxyphenyl)-2-(4-ethyl-2,3-dioxopiperazine-1-carboxamido)acetamido)-2-hydroxy-3,4-dihydro-2H-benzo[e][1,2]oxaborinine-8-carboxylic acid] | – | < 0.25 | 8 to 16 | < 30 | – | – | 32 to 64 | > 128 |
| CCN1C[C@H](C)N(C(=O)NC(C(=O)N[C@H]2Cc3ccc(F)c(C(=O)O)c3OB2O)c2ccc(O)c(O)c2Cl)C(=O)C1=O (stereo partly drawn) [Example 206, (3R)-3-(2-(2-chloro-3,4-dihydroxyphenyl)-2-((S)-4-ethyl-6-methyl-2,3-dioxopiperazine-1-carboxamido)acetamido)-7-fluoro-2-hydroxy-3,4-dihydro-2H-benzo[e][1,2]oxaborinine-8-carboxylic acid] | 2 to 4 | < 0.25 | < 0.25 | < 30 | < 0.25 | – | – | – |
| CCN1CCN(C(=O)N[C@@H](C(=O)N[C@H]2Cc3ccc(F)c(C(=O)O)c3OB2O)c2ccc(O)c(O)c2Cl)C(=O)C1=O [Example 189, (R)-3-((R)-2-(2-chloro-3,4-dihydroxyphenyl)-2-(4-ethyl-2,3-dioxopiperazine-1-carboxamido)acetamido)-7-fluoro-2-hydroxy-3,4-dihydro-2H-benzo[e][1,2]oxaborinine-8-carboxylic acid] | < 0.25 | < 0.25 | < 0.25 | < 30 | < 0.25 | – | – | – |
| CCN1CCN(C(=O)NC(C(=O)N[C@H]2Cc3ccc(F)c(C(=O)O)c3OB2O)c2ccc(O)c(O)c2Cl)C(O)C1=O (stereo partly drawn) [Example 194, (3R)-3-(2-(2-chloro-3,4-dihydroxyphenyl)-2-(4-ethyl-2-hydroxy-3-oxopiperazine-1-carboxamido)acetamido)-7-fluoro-2-hydroxy-3,4-dihydro-2H-benzo[e][1,2]oxaborinine-8-carboxylic acid] | – | < 0.25 | 0.5 to 1 | – | – | 30 to 500 | 8 to 16 | 0.5 to 1 |
| NS(=O)(=O)c1ccc(C(NC(=O)N2CCN(CCF)C(=O)C2=O)C(=O)N[C@H]2Cc3ccc(F)c(C(=O)O)c3OB2O)cc1 (stereo partly drawn) [Example 182, (3R)-7-fluoro-3-(2-(4-(2-fluoroethyl)-2,3-dioxopiperazine-1-carboxamido)-2-(4-sulfamoylphenyl)acetamido)-2-hydroxy-3,4-dihydro-2H-benzo[e][1,2]oxaborinine-8-carboxylic acid] | > 128 | 0.5 to 1 | 8 to 16 | – | > 128 | 30 to 500 | – | – |
| CCN1CCN(C(=O)NC(C(=O)N[C@H]2Cc3ccc(F)c(C(=O)O)c3OB2O)c2ccc(S(N)(=O)=O)cc2)C(=O)C1=O (stereo partly drawn) [Example 181, (3R)-3-(2-(4-ethyl-2,3-dioxopiperazine-1-carboxamido)-2-(4-sulfamoylphenyl)acetamido)-7-fluoro-2-hydroxy-3,4-dihydro-2H-benzo[e][1,2]oxaborinine-8-carboxylic acid] | > 128 | 0.5 to 1 | 8 to 16 | – | > 128 | 30 to 500 | – | – |
| CCN1C[C@@H](C)N(C(=O)NC(C(=O)N[C@H]2Cc3cccc(C(=O)O)c3OB2O)c2ncc(O)cc2F)C(=O)C1=O (stereo partly drawn) [Example 191, (3R)-3-(2-((R)-4-ethyl-6-methyl-2,3-dioxopiperazine-1-carboxamido)-2-(3-fluoro-5-hydroxypyridin-2-yl)acetamido)-2-hydroxy-3,4-dihydro-2H-benzo[e][1,2]oxaborinine-8-carboxylic acid] | > 128 | 2 to 4 | 32 to 64 | – | > 128 | 30 to 500 | – | – |
| CCN1CCN(C(=O)NC(C(=O)N[C@H]2Cc3cccc(C(=O)O)c3OB2O)c2ccc(O)c(O)c2F)C(=O)C1=O (stereo partly shown) [Example 70] | 8 to 16 | < 0.25 | 0.5 to 1 | < 30 | 0.5 to 1 | – | – | – |
| CS(=O)(=O)NCCN1CCN(C(=O)NC(C(=O)N[C@H]2Cc3cccc(C(=O)O)c3OB2O)c2ccc(O)c(O)c2Cl)C(=O)C1=O (stereo partly drawn) [Example 229, (3R)-3-(2-(2-chloro-3,4-dihydroxyphenyl)-2-(4-(2-(methylsulfonamido)ethyl)-2,3-dioxopiperazine-1-carboxamido)acetamido)-2-hydroxy-3,4-dihydro-2H-benzo[e][1,2]oxaborinine-8-carboxylic acid] | 2 to 4 | < 0.25 | < 0.25 | < 30 | < 0.25 | – | – | – |
